Measurements taken from article PMC10460844, “Real‐Time Monitoring of Multitarget Antimicrobial Mechanisms of Peptoids Using Label‐Free Imaging with Optical Diffraction Tomography” (Advanced Science, 2023).
Square brackets hold non-standard residues; d marks the D form. Peptide text beside a SMILES is read from it. Gly(N(CH2)2(3-indolyl)) = O=C(O)CNCCc1c[nH]c2ccccc12; Nspe = C[C@H](NCC(=O)O)c1ccccc1; Nlys = NCCCCNCC(=O)O

Key:
[1] = SAXS of peptoid self-assembly in aqueous environment; assay type: physicochemical; settings: for self-assembly state in aqueous solution: aqueous environment
Procedure: Prior to the experiment, peptoids were dissolved in Tris buffer (50 mM, pH 7.4). This peptoid stock solution (5 mg mL^−1) was diluted as needed. Unilamellar lipid vesicles were prepared using synthetic DMPC, DMPG, and DMPE‐PEG at a 75:22.5:2.5 molar ratio. The lipids were first dissolved in a 1:3 (v/v) methanol:chloroform solution. To make a lipid film, the organic solvents were removed completely under vacuum using a rotary evaporator with a Vacuubrand vacuum pump. The resulting lipid film was hydrated at 35 °C using Tris buffer (50 mM, pH 7.4). After hydration, the dispersion was sonicated for 15 min to promote the formation of smaller unilamellar vesicles. This was followed by the extrusion of lipid vesicles through a 100 nm pore diameter polycarbonate filter (>21 times) using an Avanti mini‐extruder fitted with two 1 mL airtight syringes. Immediately before the SAXS data collection, a peptoid solution with the adequate concentration for the target lipid:peptoid ratio was mixed 1:1 with the lipid solution (5 mg mL^−1) using a micropipette. SAXS experiments were performed at the automated BM29 bioSAXS beamline at the European Synchrotron Radiation Facility (ESRF) in Grenoble, France.^[ [47] ^] […] All experiments were conducted at 37 °C. The data set was calibrated to an absolute intensity scale using water as a primary standard. Samples (45 µL) were run through a capillary using the flow mode of the automated sample changer.^[ [48] ^] SAXS data was collected in ten successive frames of 0.5 s each to monitor radiation damage, and the data reduction was carried out using BioXTAS RAW program.^[ [49] ^]
All scattering models were implemented and fitted to the experimental SAXS data using the QtiSAS software.^[ [50] ^]

[2] = tested on: K. pneumonia ESBL 61962; assay type: cell-based
[3] = tested on: E. coli ATCC 25922; assay: Bacterial respiration assay (oxygen consumption rate); assay type: cell-based; settings: at MIC concentration, Seahorse XFe96, M9 + 10 mM glucose
Procedure: 11. Bacterial respiration assay
Figure S12. Real-time changes in oxygen consumption rate (OCR, in picomoles of molecular oxygen per minute) in response to treatment with peptoid 29, ampicillin (Amp), and chloramphenicol (Cam) in E. coli measured on a Seahorse XFe 96 extracellular flux analyzer.
OCR changes in cells treated with 29 over time (2.5 min intervals). b) Comparison of OCR responses induced by 29, Amp, and Cam treatment detected at 2.5 min intervals. The vertical line with azure color indicates the injection point of each antibiotic into the cultures. All data represent the mean ± SEM of 5-8 replicates.
Bacterial respiration assays
Cellular oxygen consumption rate (OCR) of E. coli ATCC 25922 was measured using a Seahorse XFe96 Extracellular Flux Analyzer (Agilent) as published previously.[9] Briefly, after overnight culture in LB, bacterial cells were diluted 1:200 into fresh M9 media (M6030, Sigma) and incubated for an additional 3 h at 37 °C. To conduct the measurements, bacteria were diluted to OD600 of 0.02 in M9 supplemented with 10 mM glucose. 90 μL of this cell suspension was loaded into a 96-well microplate precoated with poly-D-lysine (100 μg/mL, Sigma). […] OCR values were quantified every 2.5 min (mix and measure for 30 sec and 2 min, respectively) for an additional 48 cycles, and normalized to bacterial density […]

[4] = Protein and DNA aggregation assay (thioflavin T); assay type: biochemical; settings: 29 25 µM, protein 500 µg mL^−1, gDNA 50 ng mL^−1, Th T 25 µM, 37 °C 1 h, ex 450 / em 485 nm
Procedure: bacteria were pelleted at 4,000 rpm for 10 minutes at 8 °C. The supernatant was removed and the pellet was suspended in 2 mL of PBS buffer. This suspension was transferred to a 15 mL conical tube and cooled on ice. The culture was sonicated for 5 sec and cooled again for 55 sec. This cycle was repeated 15 times. The lysate was centrifuged at 4,000 rpm for 20 minutes at 8 °C. The supernatant was transferred into a fresh 2 mL Eppendorf tube and stored at -80 °C. Protein quantification was performed using TaKaRa Bradford Protein Assay Kit according to the manufacturer’s instructions.
DNA extraction and quantification
DNA extraction was performed using TaKaRa MiniBEST Bacteria Genomic DNA Extraction Kit Ver. 3.0 according to the manufacturer’s instructions.
Protein and DNA aggregation assay
The flocculation of the proteins and DNA caused by peptoids was confirmed by the change in the fluorescent intensity of thioflavin T (Th T) that detects aggregated proteins and double stranded DNA. The appropriate combination of 500 μg/mL of protein solution, 50 ng/mL of genomic DNA, 25 μM of Th T, and 25 μM of peptoid 29 were added into a black 96-well plate in triplicate and incubated at 37 °C for an hour. After incubation, the fluorescence was measured using a microplate reader (excitation wavelength = 450 nm, emission wavelength = […]
[1] […]

[5] = SAXS, cylindrical α-helical bundle model, 5 mg mL^−1

SMILES | self-assembly state in aqueous solution ([1]; SAXS, 5 mg mL^−1) | fraction of dimers [1, 5] | fraction of monomers [1, 5] | fraction of trimers [1, 5] | MIC K. pneumonia ESBL 61962 [2] | time after which OCR converged to zero [3] | fraction of big clusters ([1]; SAXS fit, depending on concentration) | radius of gyration ([1]; SAXS, Tris buffer 50 mM pH 7.4, 37 °C, random Gaussian chain model) | Th T fluorescence of protein and protein/gDNA samples [4]
C[C@@H](c1ccccc1)N(CC(=O)N(CCCCN)CC(=O)N(CC(=O)N(CC(=O)N(CCCCN)CC(=O)N(CC(=O)N(CC(=O)N(CCCCN)CC(=O)N(CCc1c[nH]c2ccccc12)CC(=O)N(CCc1c[nH]c2ccccc12)CC(N)=O)[C@@H](C)c1ccccc1)[C@@H](C)c1ccccc1)[C@@H](C)c1ccccc1)[C@@H](C)c1ccccc1)C(=O)CN(C(=O)CNCCCCN)[C@@H](C)c1ccccc1 [peptoid 11] (H-[Nlys][Nspe][Nspe][Nlys][Nspe][Nspe][Nlys][Nspe][Nspe][Nlys][Gly(N(CH2)2(3-indolyl))][Gly(N(CH2)2(3-indolyl))]-NH2) | larger defined nanostructures | 10% | 30% | 60% | 6.3 to 12.5 µM | – | – | – | –
C[C@@H](c1ccccc1)N(CC(=O)N(CCCCN)CC(=O)N(CCc1c[nH]c2ccccc12)CC(=O)N(CCc1c[nH]c2ccccc12)CC(N)=O)C(=O)CN(CCCCN)C(=O)CN(CCCCN)C(=O)CN(C(=O)CN(C(=O)CN(CCCCN)C(=O)CN(C(=O)CN(C(=O)CNCCCCN)[C@@H](C)c1ccccc1)[C@@H](C)c1ccccc1)[C@@H](C)c1ccccc1)[C@@H](C)c1ccccc1 [peptoid 29] (H-[Nlys][Nspe][Nspe][Nlys][Nspe][Nspe][Nlys][Nlys][Nspe][Nlys][Gly(N(CH2)2(3-indolyl))][Gly(N(CH2)2(3-indolyl))]-NH2) | remained monomeric and unstructured | – | – | – | >25 µM | 30 min | 0.003–0.008 | 10 Å | significant increases in fluorescent emission
